In patent US5672715A, “Herbicidal substituted 3-aryl-pyrazoles” (Monsanto Company, priority 1995, dated 1997):
Like-named read-outs stand apart in the source and are kept apart here.

What was measured:
Format in all cases: in vivo
[1] = tested on: Soybean; experiment: post-emergence herbicide test; details: Glycine max, post-emergence, read-out: % plant inhibition
How it was run: (§1)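 Sown pans kept on a greenhouse bench with irrigation or subirrigation until plants reached two to three weeks, then sprayed at 170.3 kPa (10 psig). Spray mix held about 0.4% by volume emulsifier; total volume 1870 L/Ha. Result expressed as percent inhibition.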

[2] = tested on: Barnyardgrass; experiment: post-emergence herbicide test; details: Echinochloa crus-galli, post-emergence, read-out: % plant inhibition
How it was run: as §1

[3] = tested on: Blackgrass; experiment: post-emergence herbicide test; details: Alopecurus myosuroides, post-emergence, read-out: % plant inhibition; for inhibition at 40.0143 g/ha: 0.0357 lb/A; for inhibition at 200.072 g/ha: 0.1785 lb/A; for inhibition at 1000.92 g/ha: 0.893 lb/A; for inhibition at 5043.82 g/ha: 4.5 lb/A
How it was run: as §1

[4] = tested on: Cocklebur; experiment: post-emergence herbicide test; details: Xanthium strumarium, post-emergence, read-out: % plant inhibition
How it was run: as §1

[5] = tested on: Corn; experiment: post-emergence herbicide test; details: Zea mays, post-emergence, read-out: % plant inhibition
How it was run: as §1

[6] = tested on: Bedstraw Catchweed; experiment: post-emergence herbicide test; details: Galium aparine, post-emergence, read-out: % plant inhibition
How it was run: as §1

[7] = tested on: Soybean; experiment: pre-emergence herbicide test; details: Glycine max, pre-emergence, read-out: % plant inhibition
How it was run: (§2)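 Soil-applied pre-emergence screen: compound added to cover topsoil over sown seeds, pans held on greenhouse bench with subirrigation, % inhibition scored ~2 weeks later.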

[8] = tested on: Barnyardgrass; experiment: pre-emergence herbicide test; details: Echinochloa crus-galli, pre-emergence, read-out: % plant inhibition
How it was run: as §2

[9] = tested on: Cocklebur; experiment: pre-emergence herbicide test; details: Xanthium strumarium, pre-emergence, read-out: % plant inhibition
How it was run: as §2

[10] = tested on: Velvetleaf; experiment: pre-emergence herbicide test; details: Abutilon theophrasti, pre-emergence, read-out: % plant inhibition
How it was run: as §2

[11] = tested on: Rice; experiment: pre-emergence herbicide test; details: Oryza sativa, read-out: % plant inhibition
How it was run: as §2

[12] = tested on: Morning Glory; experiment: pre-emergence herbicide test; details: Ipomoea, pre-emergence, read-out: % plant inhibition
How it was run: as §2

[13] = tested on: Corn; experiment: pre-emergence herbicide test; details: Zea mays, pre-emergence, read-out: % plant inhibition
How it was run: as §2

[14] = tested on: Yellow Foxtail; experiment: pre-emergence herbicide test; details: Setaria, read-out: % plant inhibition
How it was run: as §2

[15] = tested on: Yellow Nutsedge; experiment: pre-emergence herbicide test; details: Cyperus, read-out: % plant inhibition
How it was run: as §2

Question: With `Cc1c(-c2cc(O)c(Cl)cc2F)nn(C)c1C(F)(F)F` [Compound 40] as the molecule, how does the inhibition at 40.0143 g/ha ([1]; 0.0357 lb/A) read?
Answer: 25%

Question: What about the inhibition at 200.072 g/ha ([1]; 0.1785 lb/A) of the same molecule?
Answer: 30%

Question: And the inhibition at 1000.92 g/ha ([1]; 0.893 lb/A)?
Answer: 70%

Question: And the inhibition at 5043.82 g/ha ([1]; 4.5 lb/A)?
Answer: 80%

Question: And the inhibition at 40.0143 g/ha ([2]; 0.0357 lb/A)?
Answer: 0%

Question: And the inhibition at 200.072 g/ha ([2]; 0.1785 lb/A)?
Answer: 0%

Question: What about the inhibition at 1000.92 g/ha ([2]; 0.893 lb/A) of the same molecule?
Answer: 65%

Question: What about the inhibition at 5043.82 g/ha ([2]; 4.5 lb/A) of the same molecule?
Answer: 85%

Question: And the inhibition at 40.0143 g/ha ([3]; Table 4a)?
Answer: 0%

Question: What about the inhibition at 40.0143 g/ha ([3]; Table 5a) of the same molecule?
Answer: 0%

Question: What about the inhibition at 200.072 g/ha ([3]; Table 4a) of the same molecule?
Answer: 0%

Question: What about the inhibition at 200.072 g/ha ([3]; Table 5a) of the same molecule?
Answer: 35%

Question: What about the inhibition at 1000.92 g/ha ([3]; Table 4a) of the same molecule?
Answer: 50%

Question: And the inhibition at 1000.92 g/ha ([3]; Table 5a)?
Answer: 65%

Question: And the inhibition at 5043.82 g/ha ([3]; Table 4a)?
Answer: 30%

Question: And the inhibition at 5043.82 g/ha ([3]; Table 5a)?
Answer: 100%

Question: What about the inhibition at 40.0143 g/ha ([4]; 0.0357 lb/A) of the same molecule?
Answer: 80%

Question: What about the inhibition at 200.072 g/ha ([4]; 0.1785 lb/A) of the same molecule?
Answer: 65%

Question: What about the inhibition at 1000.92 g/ha ([4]; 0.893 lb/A) of the same molecule?
Answer: 70%

Question: And the inhibition at 5043.82 g/ha ([4]; 4.5 lb/A)?
Answer: 100%

Question: What about the inhibition at 40.0143 g/ha ([5]; 0.0357 lb/A) of the same molecule?
Answer: 25%

Question: And the inhibition at 200.072 g/ha ([5]; 0.1785 lb/A)?
Answer: 45%

Question: What about the inhibition at 1000.92 g/ha ([5]; 0.893 lb/A) of the same molecule?
Answer: 85%

Question: And the inhibition at 5043.82 g/ha ([5]; 4.5 lb/A)?
Answer: 50%

Question: And the inhibition at 40.0143 g/ha ([6]; 0.0357 lb/A)?
Answer: 20%

Question: What about the inhibition at 200.072 g/ha ([6]; 0.1785 lb/A) of the same molecule?
Answer: 60%

Question: And the inhibition at 1000.92 g/ha ([6]; 0.893 lb/A)?
Answer: 98%

Question: And the inhibition at 5043.82 g/ha ([6]; 4.5 lb/A)?
Answer: 100%

Question: What about the inhibition at 40.0143 g/ha ([7]; 0.0357 lb/A) of the same molecule?
Answer: 0%

Question: And the inhibition at 200.072 g/ha ([7]; 0.1785 lb/A)?
Answer: 0%

Question: And the inhibition at 1000.92 g/ha ([7]; 0.893 lb/A)?
Answer: 20%

Question: And the inhibition at 5043.82 g/ha ([7]; 4.5 lb/A)?
Answer: 20%

Question: And the inhibition at 40.0143 g/ha ([8]; 0.0357 lb/A)?
Answer: 0%

Question: What about the inhibition at 200.072 g/ha ([8]; 0.1785 lb/A) of the same molecule?
Answer: 0%

Question: And the inhibition at 1000.92 g/ha ([8]; 0.893 lb/A)?
Answer: 35%

Question: And the inhibition at 5043.82 g/ha ([8]; 4.5 lb/A)?
Answer: 100%

Question: What about the inhibition at 40.0143 g/ha ([9]; 0.0357 lb/A) of the same molecule?
Answer: 0%

Question: What about the inhibition at 200.072 g/ha ([9]; 0.1785 lb/A) of the same molecule?
Answer: 0%

Question: What about the inhibition at 1000.92 g/ha ([9]; 0.893 lb/A) of the same molecule?
Answer: 45%

Question: What about the inhibition at 5043.82 g/ha ([9]; 4.5 lb/A) of the same molecule?
Answer: 100%

Question: And the inhibition at 40.0143 g/ha ([10]; 0.0357 lb/A)?
Answer: 0%

Question: What about the inhibition at 200.072 g/ha ([10]; 0.1785 lb/A) of the same molecule?
Answer: 0%

Question: What about the inhibition at 1000.92 g/ha ([10]; 0.893 lb/A) of the same molecule?
Answer: 60%

Question: What about the inhibition at 5043.82 g/ha ([10]; 4.5 lb/A) of the same molecule?
Answer: 100%

Question: What about the inhibition at 40.0143 g/ha ([11]; 0.0357 lb/A) of the same molecule?
Answer: 0%

Question: What about the inhibition at 200.072 g/ha ([11]; 0.1785 lb/A) of the same molecule?
Answer: 0%

Question: What about the inhibition at 1000.92 g/ha ([11]; 0.893 lb/A) of the same molecule?
Answer: 0%

Question: And the inhibition at 5043.82 g/ha ([11]; 4.5 lb/A)?
Answer: 65%

Question: And the inhibition at 40.0143 g/ha ([12]; 0.0357 lb/A)?
Answer: 0%

Question: What about the inhibition at 200.072 g/ha ([12]; 0.1785 lb/A) of the same molecule?
Answer: 0%

Question: What about the inhibition at 1000.92 g/ha ([12]; 0.893 lb/A) of the same molecule?
Answer: 50%

Question: What about the inhibition at 5043.82 g/ha ([12]; 4.5 lb/A) of the same molecule?
Answer: 100%

Question: And the inhibition at 40.0143 g/ha ([13]; 0.0357 lb/A)?
Answer: 0%

Question: And the inhibition at 200.072 g/ha ([13]; 0.1785 lb/A)?
Answer: 0%

Question: What about the inhibition at 1000.92 g/ha ([13]; 0.893 lb/A) of the same molecule?
Answer: 5%

Question: And the inhibition at 5043.82 g/ha ([13]; 4.5 lb/A)?
Answer: 85%

Question: And the inhibition at 40.0143 g/ha ([14]; 0.0357 lb/A)?
Answer: 0%

Question: And the inhibition at 200.072 g/ha ([14]; 0.1785 lb/A)?
Answer: 0%

Question: And the inhibition at 1000.92 g/ha ([14]; 0.893 lb/A)?
Answer: 80%

Question: What about the inhibition at 5043.82 g/ha ([14]; 4.5 lb/A) of the same molecule?
Answer: 100%

Question: And the inhibition at 40.0143 g/ha ([15]; 0.0357 lb/A)?
Answer: 0%

Question: And the inhibition at 200.072 g/ha ([15]; 0.1785 lb/A)?
Answer: 0%

Question: And the inhibition at 1000.92 g/ha ([15]; 0.893 lb/A)?
Answer: 70%

Question: And the inhibition at 5043.82 g/ha ([15]; 4.5 lb/A)?
Answer: 0%
